In test [1] the test system is Melan-A analogue specific T-cells. The test can be described thus: IFN-γ ELISpot-assay with peptide pulsed T2 cells, Melan-A analogue specific T-cells as effectors. Conditions: for activation of Melan-A analogue specific T-cells by peptide pulsed T2 cells (IFN-γ ELISpot): T-cells from HLA-A2+ HD, ET ratio 2.5/1, FIG. 1A. Format: cell-based, human.
In test [2] the test system is HM1.24aa22-30-specific T-cells. The test can be described thus: IFN-γ ELISpot-assay with peptide pulsed T2 cells, HM1.24aa22-30-specific T-cells as effectors. It counts as cell-based, human. Conditions: T-cells from HLA-A2+ HD; ET ratio 2.5/1; FIG. 1A.

The text below walks through data of patent publication US9011867B2, “Use of specific peptides in the preparation of a medicament for the treatment of monoclonal gammopathy of undetermined significance (MGUS) or of smoldering multiple myeloma (SMM)” (Ruprecht-Karls-Universitat Heidelberg, priority 2009, dated 2015).

Take “LLLGIGILV (peptide (HM 1.24)) [HM1.24aa22-30]”: the “activation of Melan-A analogue specific T-cells by peptide pulsed T2 cells (IFN-γ ELISpot)” value in test [1] is given as “strong activation”. Further, the “IFN-γ production of Melan-A analogue specific T-cells activated by peptide pulsed T2 cells” value in test [1] (T-cells from MM patient no. 10, FIG. 4B) is given as “produced IFN-γ”.
VLLGLSALL [HM1.24aa171-179]: the “activation of HM1.24aa22-30-specific T-cells by peptide pulsed T2 cells (IFN-γ ELISpot)” value in test [2] is “activated neither”. For the same sequence, the “activation of Melan-A analogue specific T-cells by peptide pulsed T2 cells (IFN-γ ELISpot)” value in test [1] is on record as “activated neither”.
